Measured values: patent US10030039B2, “Anti-cancer agent and cancer cell killing method” (IHI Corporation, priority 2014, dated 2018)

Test system: cancer cell line (MDA-MB-231) for triple-negative breast cancer
Experiment: Cancer Cell Killing Effect Assay 5 (XTT assay)
Assay type: cell-based
Conditions: MDA-MB-231, 24 hours, 37° C., 5% CO2; 3.750 and 7.500 μM; FIG. 6
Protocol: Cancer Cell Line: Cancer Cell Line (MDA-MB-231) (the G0 Phase) for Triple-Negative Breast Cancer XTT cell proliferation assay kit (manufactured by ATCC) The XTT labeled liquid mixture was adjusted by mixing the XTT reagent (5 ml) and an activation solution (0.1 ml). The cell proliferation assay was conducted in accordance with ATCC's experiment protocol. […] The cancer cell line for the triple-negative breast cancer was cultured by the same method as that of Example 4. RPMI-1640, 10% inactivated bovine serum (GIBCO, USA), and 100 units/ml of penicillin-streptomycin were added to each well (100 μl) of the microplate (for cell proliferation and with 96 holes and a flat bottom) and 3×10^5 cultured cells were seeded. […] The XTT assay was performed by the same method as that of Example 4. The cell survival rate was calculated on the basis of the results of the absorbance measurement and by the method explained in [Cancer Cell Killing Effect Assay 3].

CC(=O)O[C@H]1C(=O)[C@@]2(C)[C@H]([C@H](OC(=O)c3ccccc3)[C@]3(O)C[C@H](OC(=O)[C@H](O)[C@@H](NC(=O)c4ccccc4)c4ccccc4)C(C)=C1C3(C)C)[C@]1(OC(C)=O)CO[C@@H]1C[C@@H]2O [paclitaxel]
concentration dependence of reduction of cell survival rate / cell killing effect: concentration-dependent up to a specified concentration
